This assay concerns the target Carbonic anhydrase 2 (Homo sapiens, UniProt P00918).

Description: Compound was tested for the binding affinity towards Carbonic anhydrase II by competitive fluorescence assay with dansylamide

With `NC(CO)C(=O)[C@@H](N)C(=O)NCCOCCOCCNC(=O)c1ccc(S(N)(=O)=O)cc1` (stereo not given in full), the Kd came to 0.041 µM. In other words, the double-digit nanomolar range.

`NCC(=O)[C@@H](N)C(=O)NCCOCCOCCNC(=O)c1ccc(S(N)(=O)=O)cc1` gave a Kd of 0.019 µM.

The molecule `CC(C)CC(N)C(=O)[C@@H](N)C(=O)NCCOCCOCCNC(=O)c1ccc(S(N)(=O)=O)cc1` (stereo not given in full) yielded a Kd of 0.016 µM.

`NCCCCC(N)C(=O)[C@@H](N)C(=O)NCCOCCOCCNC(=O)c1ccc(S(N)(=O)=O)cc1` (stereo not given in full) came in with a Kd of 0.05 µM.

The molecule `NC(CCC(=O)O)C(=O)[C@@H](N)C(=O)NCCOCCOCCNC(=O)c1ccc(S(N)(=O)=O)cc1` (stereo not given in full) came in with a Kd of 0.1 µM.

As usually defined, the Kd is the free concentration of one partner at which half of the binding sites on the other are occupied at equilibrium, for simple one-to-one binding. Read a low Kd as higher affinity.

The record behind these values is ChEMBL document CHEMBL1128410 (J Med Chem, 1995).
